Columns and labels:
WT KRAS = WT KRAS (Homo sapiens, UniProt P01116); assay: KRAS WT Probe Displacement Assay (TR-FRET, GDP-loaded); format: binding; conditions: KRAS WT, read-out: KRAS^WT Probe Displacement Assay IC50
Source text: (§1) The synthetic routes of probe 1 and 2, which have been disclosed in PCT/CN2022/070676, are hereby incorporated herein.

KRAS G12D = KRAS G12D (Homo sapiens, UniProt P01116, G12D); assay: KRAS G12D Probe Displacement Assay (TR-FRET, GDP-loaded); format: binding; conditions: KRAS G12D, read-out: KRAS^G12D Probe Displacement Assay IC50
Sequence of KRAS G12D (P01116 1-188 isoform P01116-2 G12D): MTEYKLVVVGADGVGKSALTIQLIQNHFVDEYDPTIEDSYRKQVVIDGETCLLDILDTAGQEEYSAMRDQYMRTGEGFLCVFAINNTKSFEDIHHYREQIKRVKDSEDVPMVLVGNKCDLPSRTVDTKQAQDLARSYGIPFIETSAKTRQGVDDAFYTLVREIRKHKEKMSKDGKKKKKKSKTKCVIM
Source text: as §1

Sequence of WT KRAS (P01116 1-188 isoform P01116-2): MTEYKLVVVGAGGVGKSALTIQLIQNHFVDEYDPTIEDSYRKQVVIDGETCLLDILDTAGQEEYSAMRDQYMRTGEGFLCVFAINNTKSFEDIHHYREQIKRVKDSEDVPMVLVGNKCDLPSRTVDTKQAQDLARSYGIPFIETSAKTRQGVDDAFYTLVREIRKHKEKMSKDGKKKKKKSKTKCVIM

Row | SMILES | IC50 (WT KRAS) [nM] | IC50 (KRAS G12D) [nM]
1 | Cc1cc(N)cc(-c2nc3c4c(nc(OCC56C[C@@H](F)CN5C[C@H](F)C6)nc4c2F)N2C[C@H]4CC[C@H](N4)[C@H]2CCO3)c1C(F)(F)F [Example 36, 3-((6aR,7S,10R)-13-(((2R,6R)-2,6-difluorotetrahydro-1H-pyrrolizin-7a(5H)-yl)methoxy)-1-fluoro-5,6,6a,7,8,9,10,11-octahydro-4-oxa-3,11a,12,14,15-pentaaza-7,10-methanocyclohepta[4,5]cycloocta [1,2,3-de]naphthalen-2-yl)-5-methyl-4-(trifluoromethyl)aniline] | 3 to 1000 | < 0.3
2 | CO[C@H]1CCN(CC2(COc3nc4c5c(nc(-c6cc(N)cc(C)c6C(F)(F)F)c(F)c5n3)OCC[C@@H]3[C@@H]5CC[C@H](CN43)N5)CC2)C[C@H]1F [Example 185, 3-((6aR,7S,10R)-1-fluoro-13-((1-(((3R,4S)-3-fluoro-4-methoxypiperidin-1-yl)methyl)cyclopropyl)methoxy)-5,6,6a,7,8,9,10,11-octahydro-4-oxa-3,11a,12,14,15-pentaaza-7,10-methanocyclohepta[4,5]cycloocta[1,2,3-de]naphthalen-2-yl)-5-methyl-4-(trifluoromethyl)aniline] | 3 to 1000 | < 0.3
3 | C=C1CN2C[C@H](F)C[C@]2(COc2nc3c4c(nc(-c5cc(N)cc(C)c5C(F)(F)F)c(F)c4n2)OCC[C@@H]2[C@@H]4CC[C@H](CN32)N4)C1 [Example 210, 3-((6aR,7S,10R)-1-fluoro-13-(((2R,7aS)-2-fluoro-6-methylenetetrahydro-1H-pyrrolizin-7a(5H)-yl)methoxy)-5,6,6a,7,8,9,10,11-octahydro-4-oxa-3,11a,12,14,15-pentaaza-7,10-methanocyclohepta[4,5]cycloocta[1,2,3-de]naphthalen-2-yl)-5-methyl-4-(trifluoromethyl)aniline] | 3 to 1000 | < 0.3
4 | Cc1cc(N)cc(-c2nc3c4c(nc(OCC5(CN6CCOC7(CC7)C6)CC5)nc4c2F)N2C[C@H]4CC[C@H](N4)[C@H]2CCO3)c1C(F)(F)F [Example 120, 3-((6aR,7S,10R)-13-((1-((4-oxa-7-azaspiro[2.5]octan-7-yl)methyl)cyclopropyl)methoxy)-1-fluoro-5,6,6a,7,8,9,10,11-octahydro-4-oxa-3,11a,12,14,15-pentaaza[7,10]methanocyclohepta [4,5]cycloocta[1,2,3-de]naphthalen-2-yl)-5-methyl-4-(trifluoromethyl)aniline] | 0.3 to 3 | < 0.3
5 | Cc1cc(N)cc(-c2nc3c4c(nc(OCC5(CN6C[C@@H]7C[C@H]6CO7)CC5)nc4c2F)N2C[C@H]4CC[C@H](N4)[C@H]2CCO3)c1C(F)(F)F [Example 68, 3-((6aR,7S,10R)-13-((1-(((1S,4S)-2-oxa-5-azabicyclo[2.2.1]heptan-5-yl)methyl)cyclopropyl)methoxy)-1-fluoro-5,6,6a,7,8,9,10,11-octahydro-4-oxa-3,11a,12,14,15-pentaaza-7,10-methanocyclohepta[4,5]cycloocta [1,2,3-de]naphthalen-2-yl)-5-methyl-4-(trifluoromethyl)aniline] | 3 to 1000 | < 0.3
6 | CCN1CC(F)CC(C)(COc2nc3c4c(nc(-c5cc(N)cc(C)c5C(F)(F)F)c(F)c4n2)OCC[C@@H]2[C@@H]4CC[C@H](CN32)N4)C1 (stereo partly drawn) [Example 202, 3-((6aR,7S,10R)-13-((1-ethyl-5-fluoro-3-methylpiperidin-3-yl)methoxy)-1-fluoro-5,6,6a,7,8,9,10,11-octahydro-4-oxa-3,11a,12,14,15-pentaaza-7,10-methanocyclohepta[4,5]cycloocta[1,2,3-de]naphthalen-2-yl)-5-methyl-4-(trifluoromethyl)aniline] | 3 to 1000 | < 0.3
7 | C[C@]1(COc2nc3c4c(nc(-c5cc(N)cc(Cl)c5C(F)(F)F)c(F)c4n2)OCC[C@@H]2[C@@H]4CC[C@H](CN32)N4)CCCN(C2CCOCC2)C1 [Example 196, 3-chloro-5-((6aR,7S,10R)-1-fluoro-13-(((S)-3-methyl-1-(tetrahydro-2H-pyran-4-yl)piperidin-3-yl)methoxy)-5,6,6a,7,8,9,10,11-octahydro-4-oxa-3,11a,12,14,15-pentaaza-7,10-methanocyclopenta[4,5]cycloocta[1,2,3-de]naphthalen-2-yl)-4-(trifluoromethyl)aniline] | 0.3 to 3 | < 0.3
8 | Cc1cc(N)cc(-c2nc3c4c(nc(OCC5(CN(C)C)CC5(F)F)nc4c2F)N2C[C@H]4CC[C@H](N4)[C@H]2CCO3)c1C(F)(F)F (single isomer, unassigned) [Example 17] | 3 to 1000 | < 0.3
9 | Cc1cc(N)cc(-c2nc3c4c(nc(OCC5(CN6CCN(C7CC7)CC6)CC5)nc4c2F)N2C[C@H]4CC[C@H](N4)[C@H]2CCO3)c1C(F)(F)F [Example 192, 3-((6aR,7S,10R)-13-((1-((4-cyclopropylpiperazin-1-yl)methyl)cyclopropyl)methoxy)-1-fluoro-5,6,6a,7,8,9,10,11-octahydro-4-oxa-3,11a,12,14,15-pentaaza-7,10-methanocyclohepta[4,5]cycloocta[1,2,3-de]naphthalen-2-yl)-5-methyl-4-(trifluoromethyl)aniline] | 0.3 to 3 | < 0.3
10 | Cc1cc(N)cc(-c2nc3c4c(nc(OC[C@@H]5COC[C@H]5N(C)C)nc4c2F)N2C[C@H]4CC[C@H](N4)[C@H]2CCO3)c1C(F)(F)F [Example 13, (3S,4S)-4-((((6aR,7S,10R)-2-(5-amino-3-methyl-2-(trifluoromethyl)phenyl)-1-fluoro-5,6,6a,7,8,9,10,11-octahydro-4-oxa-3,11a,12,14,15-pentaaza-7,10-methanocyclohepta[4,5]cycloocta [1,2,3-de]naphthalen-13-yl)oxy)methyl)-N,N-dimethyltetrahydrofuran-3-amine] | 3 to 1000 | < 0.3
11 | Cc1cc(N)cc(-c2nc3c4c(nc(OCC5(CN6CC(F)C6)CC5)nc4c2F)N2C[C@H]4CC[C@H](N4)[C@H]2CCO3)c1C(F)(F)F [Example 69, 3-((6aR,7S,10R)-1-fluoro-13-((1-((3-fluoroazetidin-1-yl)methyl)cyclopropyl)methoxy)-5,6,6a,7,8,9,10,11-octahydro-4-oxa-3,11a,12,14,15-pentaaza-7,10-methanocyclohepta[4,5]cycloocta [1,2,3-de]naphthalen-2-yl)-5-methyl-4-(trifluoromethyl)aniline] | 3 to 1000 | < 0.3
12 | Cc1cc(N)cc(-c2nc3c4c(nc(O[C@H]5C[C@@H]6C[C@H]5CN(C)C6)nc4c2F)N2C[C@H]4CC[C@H](N4)[C@H]2CCO3)c1C(F)(F)F [Example 198, 3-((6aR,7S,10R)-1-fluoro-13-(((1S,5S,6S)-3-methyl-3-azabicyclo[3.2.1]octan-6-yl)oxy)-5,6,6a,7,8,9,10,11-octahydro-4-oxa-3,11a,12,14,15-pentaaza-7,10-methanocyclohepta[4,5]cycloocta[1,2,3-de]naphthalen-2-yl)-5-methyl-4-(trifluoromethyl)aniline] | 3 to 1000 | < 0.3
13 | Cc1cc(N)cc(-c2nc3c4c(nc(OCC5(CN6CCSCC6)CC5)nc4c2F)N2C[C@H]4CC[C@H](N4)[C@H]2CCO3)c1C(F)(F)F [Example 159, 3-((6aR,7S,10R)-1-fluoro-13-((1-(thiomorpholinomethyl)cyclopropyl)methoxy)-5,6,6a,7,8,9,10,11-octahydro-4-oxa-3,11a,12,14,15-pentaaza-7,10-methanocyclohepta[4,5]cycloocta[1,2,3-de]naphthalen-2-yl)-5-methyl-4-(trifluoromethyl)aniline] | 0.3 to 3 | < 0.3
14 | [2H]C([2H])([2H])N1CCC(C(F)F)C(C)(C([2H])([2H])Oc2nc3c4c(nc(-c5cc(N)cc(Cl)c5C(F)(F)F)c(F)c4n2)OCC[C@@H]2[C@@H]4CC[C@H](CN32)N4)C1 (single isomer, unassigned) [Example 246] | 3 to 1000 | 0.3 to 3
15 | Nc1cc(Cl)c(C(F)(F)F)c(-c2nc3c4c(nc(OCC5(CN6CCC(=CF)CC6)CC5)nc4c2F)N2C[C@H]4CC[C@H](N4)[C@H]2CCO3)c1 [Example 156, 3-chloro-5-((6aR,7S,10R)-1-fluoro-13-((1-((4-(fluoromethylene)piperidin-1-yl)methyl)cyclopropyl)methoxy)-5,6,6a,7,8,9,10,11-octahydro-4-oxa-3,11a,12,14,15-pentaaza-7,10-methanocyclohepta[4,5]cycloocta [1,2,3-de]naphthalen-2-yl)-4-(trifluoromethyl)aniline] | 0.3 to 3 | < 0.3
16 | Cc1cc(N)cc(-c2nc3c4c(nc(OCC5(CN6CCC(F)CC6)CC5)nc4c2F)N2C[C@H]4CC[C@H](N4)[C@H]2CCO3)c1C(F)(F)F [Example 66, 3-((6aR,7S,10R)-1-fluoro-13-((1-((4-fluoropiperidin-1-yl)methyl)cyclopropyl)methoxy)-5,6,6a,7,8,9,10,11-octahydro-4-oxa-3,11a,12,14,15-pentaaza-7,10-methanocyclohepta[4,5]cycloocta [1,2,3-de]naphthalen-2-yl)-5-methyl-4-(trifluoromethyl)aniline] | 3 to 1000 | < 0.3
17 | C=C1CN2C[C@H]3C[C@H]3[C@]2(COc2nc3c4c(nc(-c5cc(N)cc(C)c5C(F)(F)F)c(F)c4n2)OCC[C@@H]2[C@@H]4CC[C@H](CN32)N4)C1 [Example 212, 3-((6aR,7S,10R)-1-fluoro-13-(((1aS,6bR)-5-methylenehexahydrocyclopropa[a]pyrrolizin-6a(4H)-yl)methoxy)-5,6,6a,7,8,9,10,11-octahydro-4-oxa-3,11a,12,14,15-pentaaza-7,10-methanocyclohepta[4,5]cycloocta[1,2,3-de]naphthalen-2-yl)-5-methyl-4-(trifluoromethyl)aniline] | 3 to 1000 | < 0.3

Source: patent US20260347373A1, “HETEROCYCLIC COMPOUNDS, COMPOSITIONS THEREOF, AND METHODS OF TREATMENT THEREWITH” (BeOne Medicines I GmbH, priority 2023, published 2026)
